# Laboratory results as given in the supplement of paper PMC10307832.
# Columns and labels:
# Assay in all cases: relative viability (nuclei count vs DMSO), 5 days (fraction); higher = more cells survive
# VX-702 + Pictilisib = compound: NC(=O)c1ccc(N(C(N)=O)c2c(F)cccc2F)nc1-c1ccc(F)cc1F [VX-702] + CS(=O)(=O)N1CCN(Cc2cc3nc(-c4cccc5[nH]ncc45)nc(N4CCOCC4)c3s2)CC1 [Pictilisib] (partner 1 µM)
# In short: (§1)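 Five library-drug doses in √10 steps were combined with a fixed anchor-drug dose, or a single drug was given alone, by pin tool to lung cancer cell lines in 1536-well plates the day after seeding. Nuclei were stained and counted after 5 days. Relative viability is the nuclei count in treated wells over that in vehicle wells, taken as the median of duplicate plates.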
# Dabrafenib + Olaparib = compound: CC(C)(C)c1nc(-c2cccc(NS(=O)(=O)c3c(F)cccc3F)c2F)c(-c2ccnc(N)n2)s1 [Dabrafenib] + O=C(c1cc(Cc2n[nH]c(=O)c3ccccc23)ccc1F)N1CCN(C(=O)C2CC2)CC1 [Olaparib] (partner 8 µM)
# In short: as §1
# VX-702 + AZD7762 = compound: NC(=O)c1ccc(N(C(N)=O)c2c(F)cccc2F)nc1-c1ccc(F)cc1F [VX-702] + NC(=O)Nc1cc(-c2cccc(F)c2)sc1C(=O)N[C@H]1CCCNC1 [AZD7762] (partner 0.2 µM)
# In short: as §1
# Dabrafenib + Luminespib = compound: CC(C)(C)c1nc(-c2cccc(NS(=O)(=O)c3c(F)cccc3F)c2F)c(-c2ccnc(N)n2)s1 [Dabrafenib] + CCNC(=O)c1noc(-c2cc(C(C)C)c(O)cc2O)c1-c1ccc(CN2CCOCC2)cc1 [Luminespib] (partner 0.01 µM)
# In short: as §1
Cell Line,relative viability (VX-702 + Pictilisib; first compound 0.02 µM),relative viability (VX-702 + Pictilisib; first compound 0.2 µM),relative viability (VX-702 + Pictilisib; first compound 0.6325 µM),relative viability (VX-702 + Pictilisib; first compound 2 µM),relative viability (Dabrafenib + Olaparib; first compound 0.003 µM),relative viability (Dabrafenib + Olaparib; first compound 0.009487 µM),relative viability (Dabrafenib + Olaparib; first compound 0.03 µM),relative viability (Dabrafenib + Olaparib; first compound 0.09487 µM),relative viability (Dabrafenib + Olaparib; first compound 0.3 µM),relative viability (VX-702 + AZD7762; first compound 0.02 µM),relative viability (VX-702 + AZD7762; first compound 0.2 µM),relative viability (VX-702 + AZD7762; first compound 0.6325 µM),relative viability (VX-702 + AZD7762; first compound 2 µM),relative viability (Dabrafenib + Luminespib; first compound 0.003 µM),relative viability (Dabrafenib + Luminespib; first compound 0.009487 µM),relative viability (Dabrafenib + Luminespib; first compound 0.03 µM),relative viability (Dabrafenib + Luminespib; first compound 0.09487 µM),relative viability (Dabrafenib + Luminespib; first compound 0.3 µM)
ChaGo-K-1,0.73,0.3,0.591,1.12,0.458,0.413,0.404,0.312,0.455,0.958,0.879,0.896,0.879,0.57,0.647,0.517,0.529,0.47
NCI-H2170,0.339,0.317,0.324,0.283,0.653,0.605,0.544,0.5,0.625,1.05,0.834,1.08,0.941,0.759,0.792,0.73,0.568,0.604
NCI-H2347,0.754,0.596,0.703,0.347,,0.629,0.552,0.553,0.599,0.746,0.8,0.787,0.699,,0.508,0.231,0.71,0.458
HCC-78,0.224,0.17,0.176,0.237,,0.847,0.733,0.452,0.915,0.541,0.589,0.774,0.798,,,,,
NCI-H520,0.282,0.216,0.25,0.306,0.312,0.317,0.305,0.271,0.354,,,,,0.228,0.213,0.21,0.262,0.224
NCI-H1623,,,,,,,,,,,,,,,0.534,0.479,0.579,0.553
Calu-6,0.973,1.05,0.996,1.11,0.569,0.556,0.482,0.303,0.481,,,,,,,,,
UMC-11,0.696,0.762,0.582,0.813,0.443,0.879,0.354,0.317,0.427,,,,,1.14,1.12,0.85,0.939,1.07
COR-L23,0.908,0.855,0.772,1.06,0.394,0.291,0.312,0.325,0.324,,,,,0.648,0.76,0.544,0.603,0.771
NCI-H2342,,,,,0.42,0.435,0.401,0.454,0.541,0.607,0.644,0.6,0.552,0.666,0.563,0.707,0.769,0.842
COR-L 105,0.449,0.386,0.409,0.366,0.685,0.793,0.702,0.599,0.799,,,,,0.852,0.936,0.916,0.949,0.977
A549,0.48,0.517,0.519,0.705,,0.34,0.293,0.112,0.317,,,,,,,,,
NCI-H2009,0.866,0.739,0.789,1.05,0.638,0.626,0.625,0.439,0.516,,,,,1.01,0.967,0.911,0.879,0.79
NCI-H1563,0.685,0.626,0.594,0.625,,,,,,,,,,0.48,0.491,0.508,0.515,0.574
NCI-H1299,0.802,0.65,0.554,0.547,0.932,0.886,0.902,0.884,0.794,,,,,,,,,
NCI-H1648,,,,,1.01,0.98,,0.523,0.765,0.709,0.583,0.634,0.563,,,,,
SW 1573,0.439,0.388,0.361,0.482,0.501,0.468,0.475,0.415,0.453,,,,,0.179,0.314,0.289,0.633,0.217
NCI-H2023,0.238,0.228,0.192,0.221,0.478,0.432,0.492,0.46,0.458,,,,,0.866,0.817,0.755,0.661,0.84
NCI-H1703,0.229,0.277,0.218,0.263,0.602,0.548,0.326,0.341,0.395,0.123,0.117,,0.115,,,,,
SK-LU-1,0.647,0.501,0.563,0.645,,0.521,0.372,0.347,0.406,,,,,,0.234,0.169,0.22,0.201
EBC-1,0.381,0.331,0.307,0.311,0.686,0.691,0.664,0.39,0.474,,,,,,,,,
